Values of other authors, collected in US6045829A, “Nanocrystalline formulations of human immunodeficiency virus (HIV) protease inhibitors using cellulosic surface stabilizers” (Elan Pharma International Limited, priority 1997, dated 2000).
Where two headings read alike, the source gives them in different places.

Key:
[1] = test system: HIV reverse transcriptase (RT); settings: for effectiveness in treating HIV infection: in vivo; for side effects: interfere with cellular enzymes similar to the HIV viral enzyme

For `O[C@H](CS)[C@H](O)CS` (racemic) [ddT, dithiothreitol], the “effectiveness in treating HIV infection” value [1] is given as “only modestly effective” and the side effects [1] is given as “severe side effects”.
For `CC(C)c1nc(CN(C)C(=O)N[C@H](C(=O)N[C@@H](Cc2ccccc2)C[C@H](O)[C@H](Cc2ccccc2)NC(=O)OCc2cncs2)C(C)C)cs1` [ABT-538], the oral bioavailability (in vivo, po) is listed as “low oral bioavailability”.
For `Cc1c(O)cccc1C(=O)N[C@@H](CSc1ccccc1)[C@H](O)CN1C[C@H]2CCCC[C@H]2C[C@H]1C(=O)NC(C)(C)C` [AG1343], the oral bioavailability (in vivo, po) is given as “low oral bioavailability”.
For `Cc1cn([C@H]2C[C@H](N=[N+]=[N-])[C@@H](CO)O2)c(=O)[nH]c1=O` [AZT, azidothymidine], the side effects [1] is given as “severe side effects”.
For `Nc1cccc(CN2C(=O)N(Cc3cccc(N)c3)[C@H](Cc3ccccc3)[C@H](O)[C@@H](O)[C@H]2Cc2ccccc2)c1` [DMP-450], the oral bioavailability (in vivo, po) is given as “low oral bioavailability”.
For `CSC[C@H](NC(=O)COc1cccc2cnccc12)C(=O)N[C@@H](Cc1ccccc1)[C@H](O)C(=O)N1CSC[C@H]1C(=O)NC(C)(C)C` [KNI-272], the oral bioavailability (oral) is given as “low oral bioavailability”.
In the case of `CC(C)(C)NC(=O)[C@@H]1CN(Cc2cccnc2)CCN1C[C@@H](O)C[C@@H](Cc1ccccc1)C(=O)N[C@H]1c2ccccc2C[C@H]1O` [MK-639, N-(2-(R)-hydroxy-1(S)-indanyl)-2(R)-phenylmethyl-4-(S)-hydroxy-5-(1-(4-(3-pyridylmethyl)-2(S)-N'-(t-butylcarboxamido)-piperazinyl))-pentaneamide], the oral bioavailability (in vivo, po) is given as “low oral bioavailability”.
In the case of `N#Cc1ccc(S(=O)(=O)Nc2cccc(C(c3c(O)c4c(oc3=O)CCCCCC4)C3CC3)c2)cc1` (stereo not shown) [U-103,017], the oral bioavailability (oral) is given as “low oral bioavailability”.
In the case of `CC(C)CN(C[C@@H](O)[C@H](Cc1ccccc1)NC(=O)O[C@H]1CCOC1)S(=O)(=O)c1ccc(N)cc1` [VX-478], the oral bioavailability (in vivo, po) is listed as “low oral bioavailability”.
In the case of `O=c1[nH]cnc2c1ncn2[C@H]1CC[C@@H](CO)O1` [ddI, didanosine], the “effectiveness in treating HIV infection” value [1] is given as “only modestly effective” and the side effects [1] is given as “severe side effects”.
For `CC(C)(C)NC(=O)[C@@H]1C[C@@H]2CCCC[C@@H]2CN1C[C@@H](O)[C@H](Cc1ccccc1)NC(=O)[C@H](CC(N)=O)NC(=O)c1ccc2ccccc2n1` [saquinavir], the oral bioavailability (in vivo, po) is given as “low oral bioavailability”.
